Assay results: patent publication US9751875B2, “Quinine compounds, and optical isomers, preparation method and medical use thereof” (BEIJING FSWELCOME TECHNOLOGY DEVELOPMENT CO., LTD., priority 2013, dated 2017)
Like-named read-outs stand apart in the source and are kept apart here.

Columns and labels:
[1] = test system: tracheal smooth muscle from guinea pigs (contraction induced by 3 × 10^−6 mol/L of CCh); assay: Antagonism in vitro of contraction of isolated tracheal smooth muscle from guinea pigs induced by carbachol (CCh); format: cell-based, guinea pig
Text: Preparation of the Isolated Tracheal Smooth Muscle Specimen from a Guinea Pig:
After a guinea pig was narcotized with urethane, the trachea between the throat and carina of the guinea pig was taken out rapidly, and placed in the Krebs-Henseleit (K-H) solution (composition (g/L): NaCl 6.92, KCl 0.35, CaCl2 0.28, KH2PO4 0.16, MgSO4.7H2O 0.4568, NaHCO3 2.1, Glucose 2.0) with a mixture gas of 5% CO2 and 95% O2 purged. After loose connective tissues and fats around the trachea were separated, the trachea was cut into trachea pieces having a width of about 3 mm and a length of 20 mm by a surgical scissor, with both ends of the trachea piece ligated with 4˜0 silk suture, and then placed into a thermostatic bath containing 5 ml of K—H solution (pH 7.4) at 37° C., with the mixture gas of 5% CO2 and 95% O2 continuously purged. A muscle tension transducer was connected to the upper end so as to apply 1.0 g of resting tension to the specimen, the change of the tension was recorded, the culture solution was replaced every 20 min, and the test was started after being balanced for 60 min.
Administration method: After the trachea piece was stabilized, 3×10^−6 mol/L of CCh was added into a bath, and after the contractile tension of the trachea piece reached a peak level, the example compounds, ipratropium bromide and tiotropium bromide were added into a Magnus bath by a cumulative dosing regimen with a dosage of 10^−9˜10^−5 mol, respectively, and the diastolic condition of the trachea piece was observed: if no response occurred (below the threshold concentration), a next dosage was continued to be added in sequence; if response occurred, after it reached a diastolic plateau, a next dosage was further added. The above operation was repeated until the contractile curve reached the minimum value. Finally, 10^−6 mol/L of isoprenaline was added so that the maximum relaxation would be reached and the curve was recorded.
Statistical approach: The result was expressed as mean ±standard deviation, and counted by Sigma Stat statistical package. The data was analyzed by using variance analysis, the comparison among means of a plurality of specimen was performed by using Student-Newman-Keuls(SNK) test; statistical significant level α=0.05 (bilateral).
Compounds shown in Table 5 were further prepared according to the present invention, and their IC50 […] of resistance to the contraction of tracheal smooth muscle from guinea pigs induced by a concentration of 3×10^−6 mol/L of CCh was determined.

[2] = test system: tracheal smooth muscle from guinea pigs (contraction induced by 3 × 10^−6 mol/L of CCh); assay: as above; format: cell-based, guinea pig; remark: listed apart in the source
[3] = 3 × 10^−6 mol/L of CCh, cumulative dosing, read-out: IC50 (μM), antagonism in vitro against the contraction of the tracheal smooth muscle induced by CCh
[4] = Cavia porcellus, read-out: IC50 (μM), antagonism in vitro against the contraction of the tracheal smooth muscle induced by CCh, 3 × 10^−6 mol/L of CCh, cumulative dosing
[5] = read-out: IC50 (μM), antagonism in vitro against the contraction of the tracheal smooth muscle induced by CCh, 3 × 10^−6 mol/L of CCh, cumulative dosing
[6] = Cavia porcellus, read-out: Resistance to the contraction of smooth muscle from guinea pigs in vitro, IC50 (μM), 3 × 10^−6 mol/L of CCh, Table 5
[7] = Cavia porcellus, 3 × 10^−6 mol/L of CCh, Table 5, read-out: Resistance to the contraction of smooth muscle from guinea pigs in vitro, IC50

Row | Molecule | Onset time [2] [min] | Time for eliminating inhibition effect (min) [2] | IC50 [1, 6] [µM] | other results
1 | OC(CO[C@H]1C[N+]2(CCCOc3ccccc3)CCC1CC2)(c1ccccc1)C1CC1 (stereo partly drawn) [Example 24, (2R,3R),(2S,3S) Configuration of 3-[(2-cyclopropyl-2-hydroxyl-2-phenyl)ethoxyl]-1-(3-phenoxypropyl)-1-azabicyclo[2,2,2]octane bromide] | 6.58 | more than 300 min | – | IC50 ([1]; Cavia porcellus, 3 × 10^−6 mol/L of CCh, cumulative dosing, read-out: IC50 (μM), antagonism in vitro against the contraction of the tracheal smooth muscle induced by CCh): 0.451 µM
2 | (2R,3R),(2S,3S) Configuration of 3-[(2-cyclopentyl-2-hydroxyl-2-phenyl)ethoxyl]-1-(3-phenoxypropyl)-1-azabicyclo[2,2,2]octane bromide [Example 6] | 6.61 | more than 300 min | – | IC50 [1, 3]: 0.156 µM
3 | C[N+]1(C)[C@@H]2C[C@@H](OC(=O)C(O)(c3cccs3)c3cccs3)C[C@H]1[C@@H]1O[C@@H]12 [tiotropium bromide, reference compound] | 30.37 | more than 300 min | – | IC50 [1, 4]: 0.0142 µM
4 | O[C@](COC1C[N+]2(CCCOc3ccccc3)CCC1CC2)(c1ccccc1)C1CCCCC1.[Br-] (stereo partly drawn) [Example 9, (2S,3R)-3-[(2-cyclohexyl-2-hydroxyl-2-phenyl)ethoxyl]-1-(3-phenoxypropyl)-1-azabicyclo[2,2,2]octane bromide] | 6.13 | more than 300 min | – | IC50 [1, 4]: 0.758 µM
5 | OC(CO[C@@H]1C[N+]2(CCCOc3ccccc3)CCC1CC2)(c1ccccc1)C1CCC1.[Br-] (stereo partly drawn) [Example 15, (2S,3R)-3-[(2-cyclobutyl-2-hydroxyl-2-phenyl)ethoxyl]-1-(3-phenoxypropyl)-1-azabicyclo[2,2,2]octane bromide] | 6.29 | more than 300 min | – | IC50 [1, 5]: 1.52 µM
6 | CC1=CC=CC1C(O)(COC1C[N+]2(CCCOc3ccccc3)CCC1CC2)c1ccccc1 (stereo not drawn) [Example 50] | – | – | 0.413 | –
7 | OC(CO[C@H]1C[N+]2(CCCOc3ccccc3)CCC1CC2)(c1ccccc1)C1CC1.[Br-] (stereo partly drawn) [Example 20, (2S,3S)-3-[(2-cyclopropyl-2-hydroxyl-2-phenyl)ethoxyl]-1-(3-phenoxypropyl)-1-azabicyclo[2,2,2]octane bromide] | 6.32 | more than 300 min | – | IC50 [1, 5]: 2.35 µM
8 | (2R,3R),(2S,3S)-3-[(2-cyclohexyl-2-hydroxyl-2-phenyl)ethoxyl]-1-(3-phenoxypropyl)-1-azabicyclo[2,2,2]octane bromide [Example 12] | 7.13 | more than 300 min | – | IC50 [1, 3]: 0.251 µM
9 | O[C@](CO[C@H]1C[N+]2(CCCOc3ccccc3)CCC1CC2)(c1ccccc1)C1CCCCC1.[Br-] [Example 8, (2S,3S)-3-[(2-cyclohexyl-2-hydroxyl-2-phenyl)ethoxyl]-1-(3-phenoxypropyl)-1-azabicyclo[2,2,2]octane bromide] | 6.72 | more than 300 min | – | IC50 [1, 4]: 2.35 µM
10 | OC(CO[C@@H]1C[N+]2(COc3ccccc3)CCC1CC2)(c1ccccc1)C1CCCC1.[Br-] (stereo partly drawn) [Example 27, (2R,3R)-3-[(2-cyclopentyl-2-hydroxyl-2-phenyl)ethoxyl]-1-phenoxymethyl-1-azabicyclo[2,2,2]octane bromide] | 5.89 | more than 300 min | – | IC50 [1, 4]: 0.0363 µM
11 | OC(COC1C[N+]2(CCCOc3ccccc3)CCC1CC2)(c1cccs1)C1CCCC1 (stereo not drawn) [Example 37] | – | – | 0.0783 | –
12 | OC(COC1C[N+]2(CCCOc3ccccc3)CCC1CC2)(c1ccco1)C1CCCC1.[Br-] [Example 32, (2R,3R)-3-[(2-cyclopentyl-2-hydroxyl-2-(2-furyl))ethoxyl]-1-(3-phenoxypropyl)-1-azabicyclo[2,2,2]octane bromide] | 5.85 | more than 300 min | – | IC50 [1, 4]: 0.0379 µM
13 | OC(CO[C@H]1C[N+]2(CCCOc3ccccc3)CCC1CC2)(c1ccccc1)C1CCCCC1.[Br-] (stereo partly drawn) [Example 7, (2R,3S)-3-[(2-cyclohexyl-2-hydroxyl-2-phenyl)ethoxyl]-1-(3-phenoxypropyl)-1-azabicyclo[2,2,2]octane bromide] | 6.56 | more than 300 min | – | IC50 [1, 4]: 0.791 µM
14 | OC(CO[C@@H]1C[N+]2(CCCOc3ccccc3)CCC1CC2)(c1ccccc1)C1CC1.[Br-] (stereo partly drawn) [Example 22, (2R,3R)-3-[(2-cyclopropyl-2-hydroxyl-2-phenyl)ethoxyl]-1-(3-phenoxypropyl)-1-azabicyclo[2,2,2]octane bromide] | 6.45 | more than 300 min | – | IC50 [1, 5]: 0.373 µM
15 | CC(C)[N+]1(C)[C@@H]2CC[C@H]1CC(OC(=O)C(CO)c1ccccc1)C2.[Br-] (stereo partly drawn) [ipratropium bromide, reference compound] | 6.82 | – | – | IC50 [1, 3]: 0.0361 µM; Time for eliminating inhibition effect [2]: 185 min
16 | OC(COC1C[N+]2(CCCOc3ccccc3)CCC1CC2)(c1ccccc1)C1CCCC1 (stereo not drawn) [Example 48] | – | – | – | IC50 ([1]; read-out: Resistance to the contraction of smooth muscle from guinea pigs in vitro, IC50, 3 × 10^−6 mol/L of CCh, Table 5): 1.18 µM
17 | OC(COC1C[N+]2(CCCOc3ccccc3)CCC1CC2)(c1ccccc1)C1CCCC1 (stereo not drawn) [Example 54] | – | – | – | IC50 [1, 7]: 0.0376 µM

Row | Molecule | Onset time [2] [min] | Time for eliminating inhibition effect (min) [2] | IC50 [1, 6] [µM] | other results
18 | COC1C[N+]2(CCCOc3ccccc3)CCC1C(OCC(O)(c1ccccc1)C1CCCC1)C2 (stereo not drawn) [Example 39] | – | – | 0.045 | –
19 | COc1cccc2cccc(C(O)(COC3C[N+]4(CCCOc5ccccc5)CCC3CC4)C3CCCC3)c12 (stereo not drawn) [Example 34] | – | – | 0.654 | –
20 | OC(COC1C[N+]2(CCCOc3ccccc3)CCC1CC2)(CC1CCCC1)c1ccccc1 (stereo not drawn) [Example 53] | – | – | 2.17 | –
21 | CC(C)(Oc1ccccc1)[N+]12CCC(CC1)C(OCC(O)(c1ccccc1)C1CCCC1)C2 (stereo not drawn) [Example 44] | – | – | 0.147 | –
22 | CCCCC(O)(COC1C[N+]2(CCCOc3ccccc3)CCC1CC2)c1ccccc1 (stereo not drawn) [Example 47] | – | – | 0.506 | –
23 | CC(Oc1ccccc1)[N+]12CCC(CC1)C(OCC(O)(c1ccccc1)C1CCCC1)C2 (stereo not drawn) [Example 43] | – | – | 0.0615 | –
24 | OC(COC1C[N+]2(CCCOc3ccccc3)CCC1CC2)(c1ccccc1)C1CCCC1 (stereo not drawn) [Example 55] | – | – | – | IC50 [1, 7]: 0.0359 µM
25 | OC(CCCCCCCOC1C[N+]2(CCCOc3ccccc3)CCC1CC2)(c1ccsc1)C1CCCC1 (stereo not drawn) [Example 38] | – | – | 0.0317 | –
26 | ClC(COC1C[N+]2(CCCOc3ccccc3)CCC1CC2)(c1ccccc1)C1CCCC1 (stereo not drawn) [Example 40] | – | – | 0.805 | –
27 | OC(COC1C[N+]2(C3(COc4ccccc4)C=CC=C3)CCC1CC2)(c1ccccc1)C1CCCC1 (stereo not drawn) [Example 46] | – | – | 1.23 | –
28 | OC(CCOC1C[N+]2(CCCOc3ccccc3)CCC1CC2)(c1ccccc1)C1CCCC1 (stereo not drawn) [Example 35] | – | – | 0.102 | –
29 | Cc1ccc(OCCC[N+]23CCC(CC2)C(OCC(O)(c2ccccc2)C2CCCC2)C3)cc1 (stereo not drawn) [Example 41] | – | – | 0.0562 | –
30 | COC1C(OCC(O)(c2ccccc2)C2CCCC2)C2CC[N+]1(CCCOc1ccccc1)CC2 (stereo not drawn) [Example 52] | – | – | 0.513 | –
31 | OC(COC1C[N+]2(C3(COc4ccccc4)CCCC3)CCC1CC2)(c1ccccc1)C1CCCC1 (stereo not drawn) [Example 45] | – | – | 0.512 | –
32 | CC1CCCC1C(O)(COC1C[N+]2(CCCOc3ccccc3)CCC1CC2)c1ccccc1 (stereo not drawn) [Example 49] | – | – | 0.045 | –
33 | COc1ccc(OCCC[N+]23CCC(CC2)C(OCC(O)(c2ccccc2)C2CCCC2)C3)cc1 (stereo not drawn) [Example 42] | – | – | 0.078 | –
34 | CC(=O)OC(COC1C[N+]2(CCCOc3ccccc3)CCC1CC2)(c1ccccc1)C1CCCC1 (stereo not drawn) [Example 36] | – | – | 0.068 | –
